# Values joined by “and” are separate entries in the source; they are usually repeats but may differ in a detail not shown here. Equal values may be shown once. “Also recorded” adds a separate entry of the source. Read-outs that look alike come from different tables or passages of the source.
# What was measured:
# [1] = test system: malignant patient derived primary CTCL cells; parameters: method as in ref 18 = [18]; 18. Mao G. Viswanadha S. Rhizen, Switzerland Unpublished work 2013; details: cited from earlier work
# CD30, IL-31 and IL-32α = experiment: Correlative biomarker analysis in plasma; assay type: in vivo, human
# Procedure: Assessment of CD30 and soluble IL-2 receptor (sIL-2R) for PTCL and cutaneous T-cell attracting chemokine (CTACK), IL-31 and IL-32α for CTCL were performed in plasma at screening, pre-dose and after 1 h on Day 1 of Cycle 3, at EOT and/or to confirm a response.
# relapsed/refractory CTCL = experiment: Efficacy assessment (ORR, DoR), CTCL patients; assay type: in vivo, human; details: for Median DoR (95% CI) / ORR (95% CI): CTCL
# Procedure: Efficacy assessments included radiological, bone marrow biopsy/aspiration and skin assessments. In some cases, bone marrow disease alone was used for disease assessment. In these cases, response was reported as CR or non-CR.
# In CTCL patients, assessment of skin lesions was performed at screening, Day 1 of Cycle 3 and 5, approximately 12 weeks thereafter and at the end of treatment (EOT). Skin photographs were obtained for half body global and up to 5 selected representative index lesions at baseline, at Day 1 of Cycle 3, EOT, at PR/CR/progressive disease (PD) and as required as per the discretion of the Investigator. In case of nodal involvement, radiological assessment was performed at screening, Day 1 of Cycle 3 and 5 and approximately 12 weeks thereafter. Skin biopsy was performed from the most indurated area at screening, on C3D1 and to confirm a CR.
# The efficacy parameters included ORR and DoR. Revised Response Criteria for Malignant Lymphoma (Cheson 2007) was used for evaluation of PTCL [21]. International Society for Cutaneous Lymphomas Response Criteria for Mycosis Fungoides and Sezary Syndrome (SS) and Cutaneous Lymphoma Task Force of the European Organization for Research and Treatment of Cancer criteria were used for evaluation of CTCL patients. For skin scoring, the modified Severity Weighted Assessment Tool was used. For local index lesion skin scoring, the Composite Assessment of Index Lesion Severity was used.
# [2] = test system: patient-derived primary cell lines representative of B and T lymphoma cell lines; parameters: method as in doi:10.1182/blood.V122.21.4418.4418; details: cited from earlier work
# [3] = Pharmacokinetic assessments in plasma, phase I/Ib study; assay type: in vivo, human; details: for Fold increase in Cmax: fasting; for AUC(0-inf) / Cmax / AUC / half-life / Tmax / k el: human, plasma, oral; for AUC: read-out: AUC(0-τ); for Tmax: median; for k el: read-out: λz (converted)
# Procedure: Complete PK assessments were performed during dose escalation on Day 1 of Cycle 1 and 2 and pre-dose at other time points (pre-dose on Day 8 and Day 15 of Cycle 1 and 2, Day 1 and Day 15 of Cycle 3 and 4 and pre-dose on Cycle 5 and beyond). In the dose expansion phase, samples were collected pre-dose on Day 1 from Cycle 1 to Cycle 8. The PK parameters included maximum plasma concentration (Cmax), time to maximum plasma concentration (Tmax), area under the plasma concentration-time curve from time of administration to the end of the dosing interval (AUC(0-τ)), apparent oral drug clearance during a dosing interval (CLss/F), apparent volume of distribution during a dosing interval (Vz/F) and elimination half-life (t1/2) were evaluated.
# PI3K δ/γ = details: cited from earlier work
# [4] = CTCL group, Cycle 3 Day 1 compared to baseline, correlated with responses
# [5] = Dose Escalation 800 mg Fasting, N = 2
# [6] = Dose Escalation 800 mg Fed, N = 4
# [7] = Dose Expansion 800 mg Fasting, N = 12
# [8] = between 400 mg and 800 mg BID, Cycle 1 Day 1
# [9] = 200 mg, 200 mg BID, C1D1, geometric mean
# [10] = 200 mg, 200 mg BID, C2D1, geometric mean
# [11] = 400 mg, 400 mg BID, C1D1, geometric mean
# [12] = 400 mg, 400 mg BID, C2D1, geometric mean
# [13] = 800 mg, 800 mg BID (fed), C1D1, geometric mean
# [14] = 800 mg, 800 mg BID (fed), C2D1, geometric mean
# [15] = 800 mg, 800 mg BID, C1D1, geometric mean
# [16] = 800 mg, 800 mg BID, C2D1, geometric mean
smiles,measurement,setting,value
CC[C@H](Nc1ncnc2[nH]cnc12)c1oc2ccccc2c(=O)c1-c1cccc(F)c1 [Tenalisib],Ex-vivo activity,[1],shown ex-vivo activity
same,Plasma IL-31 levels,"CD30, IL-31 and IL-32α; [4]",marked downregulation; also recorded: reductions
same,Plasma IL-32α levels,"CD30, IL-31 and IL-32α; [4]",marked downregulation; also recorded: reductions
same,Plasma CD30 levels,"CD30, IL-31 and IL-32α; PTCL patients, baseline to Cycle 3 Day 1, correlated with response",marked downregulation; also recorded: decrease in CD30 levels
same,"Partial response (PR), number of patients",relapsed/refractory CTCL; CTCL patients,9 patients
same,Median DoR (95% CI),"relapsed/refractory CTCL; Cumulative Total, N = 20","3.8 months and 3.8 (2.3, 12.8) months"
same,ORR (95% CI),"relapsed/refractory CTCL; Cumulative Total, N = 20","45% and 45.0 (23.1, 68.5) %"
same,ORR (95% CI),"relapsed/refractory CTCL; Dose Escalation 200 mg, N = 1","0.0 (0.0, 97.5) %"
same,Median DoR (95% CI),"relapsed/refractory CTCL; Dose Escalation 400 mg, N = 1","3.8 (-,-) months"
same,ORR (95% CI),"relapsed/refractory CTCL; Dose Escalation 400 mg, N = 1","100.0 (2.5, 100.0) %"
same,Median DoR (95% CI),relapsed/refractory CTCL; [5],"2.3 (-,-) months"
same,ORR (95% CI),relapsed/refractory CTCL; [5],"50.0 (1.3, 98.7) %"
same,Median DoR (95% CI),relapsed/refractory CTCL; [6],"3.3 (1.7, 4.9) months"
same,ORR (95% CI),relapsed/refractory CTCL; [6],"50.0 (6.8, 93.2) %"
same,Median DoR (95% CI),"relapsed/refractory CTCL; Dose Escalation Total, N = 8","3.05 (1.7, 4.6) months"
same,ORR (95% CI),"relapsed/refractory CTCL; Dose Escalation Total, N = 8","50.0 (15.7, 84.3) %"
same,Median DoR (95% CI),relapsed/refractory CTCL; [7],"10.3 (2.6, 19.6) months"
same,ORR (95% CI),relapsed/refractory CTCL; [7],"41.7 (15.2, 72.3) %"
same,Apoptotic and anti-proliferative activity,[2],demonstrated apoptotic and anti-proliferative activity
same,λz,"[3]; 200 mg BID, C2D1",0.4 h⁻¹
same,λz,"[3]; 400 mg BID, C2D1",0.4 h⁻¹
same,λz,"[3]; 800 mg BID (fed), C1D1",0.3 h⁻¹
same,λz,"[3]; 800 mg BID (fed), C2D1",0.3 h⁻¹
same,Food effect on exposure,"[3]; 800 mg BID fasting vs 800 mg BID fed cohort, patients",not significant
same,λz,"[3]; 800 mg BID, C2D1",0.3 h⁻¹
same,"Change in Cmax and AUC's, fed vs fasting","[3]; 800 mg fed and fasting cohorts, patients",< 20%
same,Dose proportionality of Cmax and AUC(0-τ),[3]; Cycle 1 Day 1,increased proportionally with dose
same,Tissue distribution (Vz/F),[3]; all cohorts,not highly distributed in tissues
same,Fold increase in AUC(0-τ),"[3]; between 200mg and 400 mg BID, Cycle 1 Day 1",1.8 fold
same,Fold increase in Cmax,"[3]; between 200 mg and 400 mg BID, Cycle 1 Day 1",1.7 fold
same,Fold increase in Cmax,"[3]; between 200 mg and 400 mg BID, Cycle 2 Day 1",1.8 fold
same,Fold increase in AUC(0-τ),[3]; [8],2.6 fold
same,Fold increase in Cmax,[3]; [8],1.8 fold
same,Fold increase in Cmax,"[3]; between 400 mg and 800 mg BID, Cycle 2 Day 1",1.1 fold
same,Accumulation,[3]; between Cycle 1 Day 1 and Cycle 2 Day 1,no significant accumulation
same,AUC(0-inf),[3]; [9],3540 ng·h/mL
same,Cmax,[3]; [9],1300 ng/mL
same,AUC,[3]; [9],3500 ng·h/mL
same,half-life,"[3]; 200 mg, 200 mg BID, C1D1, geometric mean, read-out: t1/2 (converted)",1.6 h
same,Tmax,"[3]; 200 mg, 200 mg BID, C1D1",1 h
same,AUC(0-inf),[3]; [10],4020 ng·h/mL
same,Cmax,[3]; [10],1650 ng/mL
same,AUC,[3]; [10],3970 ng·h/mL
same,half-life,"[3]; 200 mg, 200 mg BID, C2D1, geometric mean, read-out: t1/2 (converted)",1.8 h
same,Tmax,"[3]; 200 mg, 200 mg BID, C2D1",0.5 h
same,AUC(0-inf),[3]; [11],6530 ng·h/mL
same,Cmax,[3]; [11],2200 ng/mL
same,AUC,[3]; [11],6420 ng·h/mL
same,half-life,"[3]; 400 mg, 400 mg BID, C1D1, geometric mean, read-out: t1/2 (converted)",1.9 h
same,Tmax,"[3]; 400 mg, 400 mg BID, C1D1",0.8 h
same,AUC(0-inf),[3]; [12],5600 ng·h/mL
same,Cmax,[3]; [12],2900 ng/mL
same,AUC,[3]; [12],5530 ng·h/mL
same,half-life,"[3]; 400 mg, 400 mg BID, C2D1, geometric mean, read-out: t1/2 (converted)",2 h
same,Tmax,"[3]; 400 mg, 400 mg BID, C2D1",0.5 h
same,AUC(0-inf),[3]; [13],14500 ng·h/mL
same,Cmax,[3]; [13],2670 ng/mL
same,AUC,[3]; [13],13600 ng·h/mL
same,half-life,"[3]; 800 mg, 800 mg BID (fed), C1D1, geometric mean, read-out: t1/2 (converted)",2.6 h
same,Tmax,"[3]; 800 mg, 800 mg BID (fed), C1D1",2.1 h
same,AUC(0-inf),[3]; [14],14200 ng·h/mL
same,Cmax,[3]; [14],4170 ng/mL
same,AUC,[3]; [14],13600 ng·h/mL
same,half-life,"[3]; 800 mg, 800 mg BID (fed), C2D1, geometric mean, read-out: t1/2 (converted)",2.8 h
same,Tmax,"[3]; 800 mg, 800 mg BID (fed), C2D1",1.1 h
same,AUC(0-inf),[3]; [15],17400 ng·h/mL
same,Cmax,[3]; [15],4000 ng/mL
same,AUC,[3]; [15],16400 ng·h/mL
same,half-life,"[3]; 800 mg, 800 mg BID, C1D1, geometric mean, read-out: t1/2 (converted)",2.6 h
same,Tmax,"[3]; 800 mg, 800 mg BID, C1D1",1.1 h
same,AUC(0-inf),[3]; [16],17200 ng·h/mL
same,Cmax,[3]; [16],3230 ng/mL
same,AUC,[3]; [16],16200 ng·h/mL
same,half-life,"[3]; 800 mg, 800 mg BID, C2D1, geometric mean, read-out: t1/2 (converted)",2.6 h
same,Tmax,"[3]; 800 mg, 800 mg BID, C2D1",2.1 h
same,half-life,"[3]; all cohorts, read-out: Median t1/2 (converted)",2.28 h
same,half-life,"[3]; all cohorts, read-out: t1/2 range",1.6 to 2.8 h
same,k el,"[3]; 200 mg BID, C1D1",0.000111 s⁻¹
same,k el,"[3]; 400 mg BID, C1D1",0.000111 s⁻¹
same,k el,"[3]; 800 mg BID, C1D1",8.33e-05 s⁻¹
same,Inhibitory potency,PI3K δ/γ; PI3K δ/γ,nanomolar
same,Selectivity over α and β PI3K isoforms,PI3K δ/γ,several fold
